Molecular target: T1, human OX2R (Homo sapiens, UniProt O43614)
T1 construct: expressed in transfected cells; host or cells: Chinese hamster ovary (CHO) cells, kept under G418 selection
T1 sequence (O43614 1-444): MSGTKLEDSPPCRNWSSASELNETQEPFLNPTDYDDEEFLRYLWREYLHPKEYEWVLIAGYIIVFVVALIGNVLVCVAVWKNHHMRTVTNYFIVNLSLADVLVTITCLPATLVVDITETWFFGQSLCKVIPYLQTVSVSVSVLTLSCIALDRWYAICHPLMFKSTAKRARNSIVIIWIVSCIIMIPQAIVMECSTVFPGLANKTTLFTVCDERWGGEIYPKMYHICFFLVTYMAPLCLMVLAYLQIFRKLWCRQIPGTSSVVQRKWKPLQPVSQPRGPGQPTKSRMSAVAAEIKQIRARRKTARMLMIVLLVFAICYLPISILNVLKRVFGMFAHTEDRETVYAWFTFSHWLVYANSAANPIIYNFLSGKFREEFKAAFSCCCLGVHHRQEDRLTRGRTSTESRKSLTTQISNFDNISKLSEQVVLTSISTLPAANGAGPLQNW
Test: IPOne (IP-One) orexin receptor agonist assay in CHO cells expressing human OX2R
Type: cell-based
Conditions: for EC50: CHO cells expressing human OX2R, IP-One detection, 2 hours incubation, four parameter logistic fit, read-out: OX2R Potency, EC50; for % max agonist effect (Emax): human OX2R, percentage of sample raw value/mean max effect (reference compound at 1 uM with 100% activity)
Source text: The utility of the compounds in accordance with the present invention as orexin receptor OX1R and/or OX2R agonists may be readily determined without undue experimentation by methodology well known in the art. Both the OX1R and/or OX2R G-coupled protein receptors (GPCRs) couple through the Gaq signaling pathway, which ultimately promotes calcium mobilization via inositol triphosphate (IP3) production. […] The utility of the compounds in accordance with the present invention as orexin receptor OX1R and/or OX2R agonists may be determined utilizing this assay.
In a typical experiment, the OX1 and OX2 receptor agonist activity is determined in accordance with the following general experimental method. Chinese hamster ovary (CHO) cells expressing human OX1R and/or the human OX2R were grown in Iscove's modified DMEM containing glutaMAX™, 1% G418, 100 U/mL penicillin, 100 μg/mL streptomycin and 10% heat-inactivated qualified fetal bovine serum (FBS). […] During this incubation, IP-one detection reagents were prepared (38:1:1 lysis buffer:D2:AB-cryptate reagents).
For each compound, data were fit to a four parameter logistic fit (ActivityBase software) and the EC50 was reported as the inflection point of the resulting curve. Percent effect for each test compound was determined as the percentage of sample raw value/mean max effect, where the mean max effect was derived from the mean raw value of 32 control wells per assay plate (using Orexin A (cat #003-30) at 1 μM for human OX1R and a reference compound at 1 uM with 100% activity previously established by comparison to Orexin A for human OX2R). The intrinsic orexin receptor agonist activity of a compound which may be used in the present invention may be determined by these assays.

Structure (SMILES) | EC50 [nM] | % max agonist effect (Emax) [%]
CS(=O)(=O)N[C@H]1CCN(c2ccc(=O)n(C(F)F)c2)[C@H]1CO[C@H]1CC[C@@H](c2ccccc2)CC1 [Example 23, N-((2R,3S)-1-(1-(difluoromethyl)-6-oxo-1,6-dihydropyridin-3-yl)-2-((((CIS)-4-phenylcyclohexyl)-oxy)methyl)pyrrolidin-3 - yl)methanesulfonamide] | 4640 | 81.2
CS(=O)(=O)N[C@H]1CCN(c2ccc(C(F)F)nc2)[C@H]1CO[C@H]1CC[C@@H](c2ccccc2)CC1 [Example 24, N-((2R,3S)-1-(6-(difluoromethyl)pyridin-3-yl)-2-((((CIS)-4-phenylcyclohexyl)-oxy)methyl)pyrrolidin-3-yl)methanesulfonamide] | 50 | 100.7
CS(=O)(=O)N[C@H]1CCN(c2ccnc(C#N)c2)[C@H]1CO[C@H]1CC[C@@H](c2ccccc2)CC1 [Example 25, N-((2R,3S)-1-(2-cyanopyridin-4-yl)-2-((((CIS)-4-phenylcyclohexyl)oxy)methyl)pyrrolidin-3-yl)methanesulfonamide] | 5770 | 78.6
CS(=O)(=O)N[C@H]1CCN(c2cncs2)[C@H]1CO[C@H]1CC[C@@H](c2ccccc2)CC1 [Example 26, N-((2R,3S)-2-((((CIS)-4-phenylcyclohexyl)oxy)methyl)-1-(thiazol-5-yl)pyrrolidin-3-yl)methanesulfonamide] | 444 | 99.0
CS(=O)(=O)N[C@H]1CCN(c2nccs2)[C@H]1CO[C@H]1CC[C@@H](c2ccccc2)CC1 [Example 27, N-((2R,3S)-2-((((CIS)-4-phenylcyclohexyl)oxy)methyl)-1-(thiazol-2-yl)pyrrolidin-3-yl)methanesulfonamide] | 70.2 | 98.9
Cn1ccnc1N1CC[C@H](NS(C)(=O)=O)[C@@H]1CO[C@H]1CC[C@@H](c2ccccc2)CC1 [Example 28, N-((2R,3S)-1-(1-methyl-1H-imidazol-2-yl)-2-((((CIS)-4-phenylcyclohexyl)oxy)methyl)pyrrolidin-3-yl)methanesulfonamide] | 105 | 100.0
Cc1cnc(N2CC[C@H](NS(C)(=O)=O)[C@@H]2CO[C@H]2CC[C@@H](c3ccccc3)CC2)n1C [Example 29, N-((2R,3S)-1-(1,5-dimethyl-1H-imidazol-2-yl)-2-((((CIS)-4-phenylcyclohexyl)oxy)methyl)pyrrolidin-3-yl)methanesulfonamide] | 366 | 100.0
Cc1c(N2CC[C@H](NS(C)(=O)=O)[C@@H]2CO[C@H]2CC[C@@H](c3ccccc3)CC2)cnn1C [Example 30, N-((2R,3S)-1-(1,5-dimethyl-1H-pyrazol-4-yl)-2-((((CIS)-4-phenylcyclohexyl)oxy)methyl)pyrrolidin-3-yl)methanesulfonamide] | 149 | 100.0
Cn1nnnc1N1CC[C@H](NS(C)(=O)=O)[C@@H]1CO[C@H]1CC[C@@H](c2ccccc2)CC1 [Example 31, N-((2R,3S)-1-(1-methyl-1H-tetrazol-5-yl)-2-((((CIS)-4-phenylcyclohexyl)oxy)methyl)pyrrolidin-3-yl)methanesulfonamide] | 2.6 | 101.5
Cc1ncc(N2CC[C@H](NS(C)(=O)=O)[C@@H]2CO[C@H]2CC[C@@H](c3ccccc3)CC2)n1C [Example 32, N-((2R,3S)-1-(1,2-dimethyl-1H-imidazol-5-yl)-2-((((CIS)-4-phenylcyclohexyl)oxy)methyl)pyrrolidin-3-yl)methanesulfonamide] | 37 | 100.2
CS(=O)(=O)N[C@H]1CCN(c2ncns2)[C@H]1CO[C@H]1CC[C@@H](c2ccccc2)CC1 [Example 33, N-((2R,3S)-2-((((CIS)-4-phenylcyclohexyl)oxy)methyl)-1-(1,2,4-thiadiazol-5-yl)pyrrolidin-3-yl)methanesulfonamide] | 146 | 101.0
CS(=O)(=O)N[C@H]1CCN(c2ccc(C(F)(F)F)nc2)[C@H]1CO[C@H]1CC[C@@H](c2ccccc2)CC1 [Example 34, N-((2R,3S)-2-((((CIS)-4-phenylcyclohexyl)oxy)methyl)-1-(6-(trifluoromethyl)pyridin-3-yl)pyrrolidin-3-yl)methanesulfonamide] | 70 | 99.6
CS(=O)(=O)N[C@H]1CCN(c2ccc(OC(F)F)cn2)[C@H]1CO[C@H]1CC[C@@H](c2ccccc2)CC1 [Example 35, N-((2R,3S)-1-(5-(difluoromethoxy)pyridin-2-yl)-2-((((CIS)-4-phenylcyclohexyl)oxy)methyl)pyrrolidin-3-yl)methanesulfonamide] | 176 | 104.3
CS(=O)(=O)N[C@H]1CCN(c2ccc(OCCF)cc2)[C@H]1CO[C@H]1CC[C@@H](c2ccccc2)CC1 [Example 36, N-((2R,3S)-1-(4-(2-fluoroethoxy)phenyl)-2-((((CIS)-4-phenylcyclohexyl)oxy)methyl)pyrrolidin-3-yl)methanesulfonamide] | 2790 | 54.1
Cc1nnc(N2CC[C@H](NS(C)(=O)=O)[C@@H]2CO[C@H]2CC[C@@H](c3ccccc3)CC2)o1 [Example 37, N-((2R,3 S)-1-(5-methyl-1,3,4-oxadiazol-2-yl)-2-((((CIS)-4-phenylcyclohexyl)oxy)methyl)pyrrolidin-3-yl)methanesulfonamide] | 670 | 101.5
CS(=O)(=O)N[C@H]1CCN(c2ncccn2)[C@H]1CO[C@H]1CC[C@@H](c2ccccc2)CC1 [Example 38, N-((2R,3S)-2-((((CIS)-4-phenylcyclohexyl)oxy)methyl)-1-(pyrimidin-2-yl)pyrrolidin-3-yl)methanesulfonamide] | 784 | 97.1
CS(=O)(=O)N[C@H]1CCN(c2occc2C#N)[C@H]1CO[C@H]1CC[C@@H](c2ccccc2)CC1 [Example 39, N-((2R,3 S)-1-(3-cyanofuran-2-yl)-2-((((CIS)-4-phenylcyclohexyl)oxy)methyl)pyrrolidin-3-yl)methanesulfonamide] | 613 | 98.4
Cn1cc(N2CC[C@H](NS(C)(=O)=O)[C@@H]2CO[C@H]2CC[C@@H](c3ccccc3)CC2)cn1 [Example 40, N-((2R,3S)-1-(1-methyl-1H-pyrazol-4-yl)-2-((((CIS)-4-phenylcyclohexyl)oxy)methyl)pyrrolidin-3-yl)methanesulfonamide] | 431 | 98.8
CS(=O)(=O)N[C@H]1CCN(c2cnc(C(F)(F)F)nc2)[C@H]1CO[C@H]1CC[C@@H](c2ccccc2)CC1 [Example 41] | 172 | 100.2
CS(=O)(=O)N[C@H]1CCN(c2cncnc2)[C@H]1CO[C@H]1CC[C@@H](c2ccccc2)CC1 [Example 42, N-((2R,3S)-2-((((CIS)-4-phenylcyclohexyl)oxy)methyl)-1-(pyrimidin-5-yl)pyrrolidin-3-yl)methanesulfonamide] | 134 | 100.9
CS(=O)(=O)N[C@H]1CCN(c2ccnc(CO)c2)[C@H]1CO[C@H]1CC[C@@H](c2ccccc2)CC1 [Example 43, N-((2R,3S)-1-(2-(hydroxymethyl)pyridin-4-yl)-2-((((CIS)-4-phenylcyclohexyl)oxy)methyl)pyrrolidin-3-yl)methanesulfonamide] | 3540 | 90.4
CC(C)(O)c1cc(N2CC[C@H](NS(C)(=O)=O)[C@@H]2CO[C@H]2CC[C@@H](c3ccccc3)CC2)ccn1 [Example 44, N-((2R,3S)-1-(2-(2-hydroxypropan-2-yl)pyridin-4-yl)-2-((((CIS)-4-phenylcyclohexyl)oxy)methyl)pyrrolidin-3-yl)methanesulfonamide] | > 10000 | 22.0
Cc1cc(N2CC[C@H](NS(C)(=O)=O)[C@@H]2CO[C@H]2CC[C@@H](c3ccccc3)CC2)cnc1CO [Example 45, N-((2R,3S)-1-(6-(hydroxymethyl)-5-methylpyridin-3-yl)-2-((((CIS)-4-phenylcyclohexyl)oxy)methyl)pyrrolidin-3-yl)methanesulfonamide] | 1410 | 97.2
